Calls of active or inactive are those of the source. How the calls were made is not given here. Numbered stars: 1 amine (or outer) side, 2 acyl side, 3 side chain; on linkers, the order of the positions; unused ones are H or OH. Bridge positions count the residues as written; N and C are the ends. Square brackets hold non-standard residues; d marks the D form. Peptide text beside a SMILES is read from it. I, II: the chains in the order shown. Actinocin(1to9) = Cc1c2oc3c(C)ccc(C(=O)[*:2])c3nc-2c(C(=O)[*:1])c(N)c1=O; NMeV = CN[C@H](C(=O)O)C(C)C; Sar = CNCC(=O)O
System: rodent lifetime carcinogenesis bioassay, tumor incidence TD50
Assay: carcinogenic potency in animals, long-term in vivo studies, CPDB compilation (AID 1745844)
[1] = rat, strain Sprague-Dawley, females, in feed, site: any site (literature study), lesion: several types, types named in the paper, dosed 46 weeks, study length 66 weeks

For `ClCC(Cl)(Cl)Cl`, the TD50 (mouse, strain B6C3F1, females, by gavage, site: any site (literature study), lesion: several types, types named in the paper, dosed 103 weeks, study length 104 weeks) was 110 mg/kg/day, the TD50 (mouse, strain B6C3F1, females, by gavage, site: liver, lesion: hepatocellular adenoma + hepatocellular carcinoma + neoplastic nodule, dosed 103 weeks, study length 104 weeks) was 175 mg/kg/day and the TD50 (mouse, strain B6C3F1, females, by gavage, site: liver, lesion: hepatocellular adenoma + hepatocellular carcinoma, dosed 103 weeks, study length 104 weeks) was 175 mg/kg/day. For the same compound, the TD50 (mouse, strain B6C3F1, females, by gavage, site: liver, lesion: hepatocellular adenoma, dosed 103 weeks, study length 104 weeks) was 254 mg/kg/day, the TD50 (mouse, strain B6C3F1, females, by gavage, site: liver, lesion: hepatocellular carcinoma, dosed 103 weeks, study length 104 weeks) was 640 mg/kg/day and the TD50 (mouse, strain B6C3F1, females, by gavage, site: lung, lesion: alveolar/bronchiolar adenoma + alveolar/bronchiolar carcinoma, dosed 103 weeks, study length 104 weeks) was 1820 mg/kg/day. The TD50 (mouse, strain B6C3F1, males, by gavage, site: any site (literature study), lesion: several types, types named in the paper, dosed 103 weeks, study length 104 weeks) was 97.9 mg/kg/day, the TD50 (mouse, strain B6C3F1, males, by gavage, site: liver, lesion: hepatocellular adenoma + hepatocellular carcinoma + neoplastic nodule, dosed 103 weeks, study length 104 weeks) was 124 mg/kg/day and the TD50 (mouse, strain B6C3F1, males, by gavage, site: liver, lesion: hepatocellular adenoma + hepatocellular carcinoma, dosed 103 weeks, study length 104 weeks) was 124 mg/kg/day. For the same compound, the TD50 (mouse, strain B6C3F1, males, by gavage, site: liver, lesion: hepatocellular adenoma, dosed 103 weeks, study length 104 weeks) was 190 mg/kg/day, the TD50 (mouse, strain B6C3F1, males, by gavage, site: lung, lesion: alveolar/bronchiolar adenoma + alveolar/bronchiolar carcinoma, dosed 103 weeks, study length 104 weeks) was 1330 mg/kg/day and the TD50 (rat, strain Fischer 344, females, by gavage, site: liver, lesion: hepatocellular adenoma + hepatocellular carcinoma + neoplastic nodule, dosed 103 weeks, study length 104 weeks) was 3980 mg/kg/day. For the same compound, the TD50 (rat, strain Fischer 344, females, by gavage, site: mammary gland, lesion: fibroadenoma, dosed 103 weeks, study length 104 weeks) was 170 mg/kg/day (inactive), the TD50 (rat, strain Fischer 344, males, by gavage, site: any site (literature study), lesion: several types, types named in the paper, dosed 103 weeks, study length 104 weeks) was 464 mg/kg/day and the TD50 (rat, strain Fischer 344, males, by gavage, site: liver, lesion: hepatocellular adenoma + hepatocellular carcinoma + neoplastic nodule, dosed 103 weeks, study length 104 weeks) was 1130 mg/kg/day. The TD50 (rat, strain Fischer 344, males, by gavage, site: multiple organs + peritoneum + tunica vaginalis, lesion: mesothelioma, malignant + mesothelioma, NOS, dosed 103 weeks, study length 104 weeks) was 842 mg/kg/day (inactive).
For `COC(C(=O)O)c1ccccc1` (stereo not drawn), the TD50 (mouse, strain B6AKF1, females, oral dosing, site: any site (literature study), lesion: several types, types named in the paper, dosed 76 weeks, study length 76 weeks) was 227 mg/kg/day (inactive), the carcinogen call (mouse, strain B6AKF1, females, oral dosing, site: liver, lesion: hepatoma, dosed 76 weeks, study length 76 weeks) was “negative (inactive)” and the TD50 (mouse, strain B6AKF1, females, oral dosing, site: lung, lesion: adenoma, dosed 76 weeks, study length 76 weeks) was 236 mg/kg/day (inactive). The TD50 (mouse, strain B6AKF1, males, oral dosing, site: any site (literature study), lesion: several types, types named in the paper, dosed 76 weeks, study length 76 weeks) was 139 mg/kg/day (inactive), the TD50 (mouse, strain B6AKF1, males, oral dosing, site: liver, lesion: hepatoma, dosed 76 weeks, study length 76 weeks) was 3620 mg/kg/day (inactive) and the TD50 (mouse, strain B6AKF1, males, oral dosing, site: lung, lesion: adenoma, dosed 76 weeks, study length 76 weeks) was 157 mg/kg/day (inactive). The TD50 (mouse, strain B6C3F1, females, oral dosing, site: any site (literature study), lesion: several types, types named in the paper, dosed 76 weeks, study length 76 weeks) was 157 mg/kg/day (inactive), the carcinogen call (mouse, strain B6C3F1, females, oral dosing, site: liver, lesion: hepatoma, dosed 76 weeks, study length 76 weeks) was “negative (inactive)” and the TD50 (mouse, strain B6C3F1, females, oral dosing, site: lung, lesion: adenoma, dosed 76 weeks, study length 76 weeks) was 244 mg/kg/day (inactive). For the same compound, the TD50 (mouse, strain B6C3F1, males, oral dosing, site: all sites, lesion: reticulum-cell sarcoma, dosed 76 weeks, study length 76 weeks) was 82.1 mg/kg/day (inactive), the TD50 (mouse, strain B6C3F1, males, oral dosing, site: any site (literature study), lesion: several types, types named in the paper, dosed 76 weeks, study length 76 weeks) was 54.2 mg/kg/day (inactive) and the TD50 (mouse, strain B6C3F1, males, oral dosing, site: liver, lesion: hepatoma, dosed 76 weeks, study length 76 weeks) was 227 mg/kg/day (inactive). The carcinogen call (mouse, strain B6C3F1, males, oral dosing, site: lung, lesion: several types, types named in the paper, dosed 76 weeks, study length 76 weeks) was “negative (inactive)”.
With `Cc1cccc(Nc2cc(Cl)nc(SCC(=O)O)n2)c1C` the carcinogen call (hamster, strain Syrian, MB strain, males, in feed, site: liver, lesion: several types, types named in the paper, dosed 60 weeks, study length 60 weeks) was “negative (inactive)”, the carcinogen call (mouse, strain CSb, males, in feed, site: liver, lesion: hepatocellular carcinoma, dosed 53 weeks, study length 63 weeks) was “positive” and the TD50 (rat, strain F344/DuCrj, males, in feed, site: liver, lesion: several types, types named in the paper, dosed 52 weeks, study length 52 weeks) was 4.26 mg/kg/day. For the same compound, the carcinogen call (rat, strain F344/DuCrj, males, in feed, site: liver, lesion: several types, types named in the paper, dosed 78 weeks, study length 78 weeks) was “positive”, the TD50 (rat, strain Fischer 344, males, in feed, site: liver, lesion: hepatocellular adenoma, dosed 37 weeks, study length 52 weeks) was 95.1 mg/kg/day and the TD50 (rat, strain Fischer 344, males, in feed, site: liver, lesion: hepatocellular adenoma, dosed 37 weeks, study length 104 weeks) was 190 mg/kg/day. For the same compound, the TD50 (rat, strain Fischer 344, males, in feed, site: liver, lesion: hepatocellular adenoma, dosed 52 weeks, study length 52 weeks) was 2.29 mg/kg/day, the TD50 (rat, strain Fischer 344, males, in feed, site: liver, lesion: hepatocellular adenoma, dosed 52 weeks, study length 104 weeks) was 84.3 mg/kg/day and the carcinogen call (rat, strain Fischer 344, males, in feed, site: liver, lesion: hepatocellular carcinoma, trabecular, dosed 69 weeks, study length 69 weeks) was “positive”. For the same compound, the TD50 (rat, strain Fischer 344, males, in feed, site: liver, lesion: hepatocellular carcinoma, dosed 37 weeks, study length 104 weeks) was 92.6 mg/kg/day, the TD50 (rat, strain Fischer 344, males, in feed, site: liver, lesion: hepatocellular carcinoma, dosed 52 weeks, study length 52 weeks) was 19.2 mg/kg/day and the TD50 (rat, strain Fischer 344, males, in feed, site: liver, lesion: hepatocellular carcinoma, dosed 52 weeks, study length 104 weeks) was 26.8 mg/kg/day. The carcinogen call (rat, strain Fischer 344, males, in feed, site: liver, lesion: hepatocellular carcinoma, dosed 65 weeks, study length 65 weeks) was “positive”, the TD50 (rat, strain Fischer 344, males, in feed, site: liver, lesion: several types, types named in the paper, dosed 37 weeks, study length 104 weeks) was 60 mg/kg/day and the carcinogen call (rat, strain Fischer 344, males, in feed, site: liver, lesion: several types, types named in the paper, dosed 52 weeks, study length 52 weeks) was “positive”. The TD50 (rat, strain Fischer 344, males, in feed, site: liver, lesion: several types, types named in the paper, dosed 52 weeks, study length 104 weeks) was 22.9 mg/kg/day and the carcinogen call (rat, strain Sprague-Dawley, males, in feed, site: liver, lesion: several types, types named in the paper, dosed 60 weeks, study length 60 weeks) was “positive”.
`CCN=c1cc2oc3cc(NCC)c(C)cc3c(-c3ccccc3C(=O)OCC)c-2cc1C` was tested, and the carcinogen call (mouse, strain B6C3F1, females, in feed, site: any site (literature study), lesion: several types, types named in the paper, dosed 103 weeks, study length 105 weeks) was “negative (inactive)”, the TD50 (mouse, strain B6C3F1, males, in feed, site: thyroid gland, lesion: follicular-cell adenoma + follicular-cell carcinoma, dosed 103 weeks, study length 105 weeks) was 1210 mg/kg/day (inactive) and the TD50 (rat, strain Fischer 344, females, in feed, site: adrenal medulla, lesion: pheochromocytoma, malignant + pheochromocytoma, benign, dosed 103 weeks, study length 105 weeks) was 47.1 mg/kg/day. For the same compound, the TD50 (rat, strain Fischer 344, males, in feed, site: liver, lesion: hepatocellular adenoma + hepatocellular carcinoma + neoplastic nodule, dosed 103 weeks, study length 105 weeks) was 553 mg/kg/day and the TD50 (rat, strain Fischer 344, males, in feed, site: skin, lesion: keratoacanthoma, dosed 103 weeks, study length 105 weeks) was 34.5 mg/kg/day.
With `Nc1nnc(-c2ccc([N+](=O)[O-])o2)o1` the TD50 [1] was 2.74 mg/kg/day, the TD50 (rat, strain Sprague-Dawley, females, in feed, site: forestomach, lesion: squamous-cell papilloma, dosed 46 weeks, study length 66 weeks) was 37 mg/kg/day and the TD50 (rat, strain Sprague-Dawley, females, in feed, site: kidney/pelvis, lesion: transitional-cell carcinoma, dosed 46 weeks, study length 66 weeks) was 45.2 mg/kg/day. The TD50 (rat, strain Sprague-Dawley, females, in feed, site: lung, lesion: alveolar-cell carcinoma, dosed 46 weeks, study length 66 weeks) was 242 mg/kg/day, the TD50 (rat, strain Sprague-Dawley, females, in feed, site: mammary gland, lesion: adenocarcinoma, dosed 46 weeks, study length 66 weeks) was 7.98 mg/kg/day and the TD50 (rat, strain Sprague-Dawley, females, in feed, site: mammary gland, lesion: several types, types named in the paper, dosed 46 weeks, study length 66 weeks) was 3.67 mg/kg/day.
In the case of `O=[N+]([O-])c1ccc(-c2nc(N3CCOCC3)c3ccccc3n2)s1`, the TD50 [1] is reported as 5.03 mg/kg/day.
In the case of `Cc1cccc(Nc2cc(Cl)nc(SCC(=O)NCCO)n2)c1C`, the TD50 (mouse, strain CSb, females, in feed, site: liver, lesion: hepatocellular carcinoma, dosed 82 weeks, study length 82 weeks) is reported as 44.6 mg/kg/day and the TD50 (rat, strain Fischer 344, males, in feed, site: liver, lesion: hepatocellular carcinoma, dosed 75 weeks, study length 82 weeks) is reported as 6.49 mg/kg/day.
`[O]=[Bi]` was tested, and the carcinogen call (rat, strain BD, both sexes, in feed, site: hypophysis, lesion: adenoma, dosed 104 weeks, study length 120 weeks) was “negative (inactive)”, the carcinogen call (rat, strain BD, both sexes, in feed, site: mammary gland, lesion: carcinoma, dosed 104 weeks, study length 120 weeks) was “negative (inactive)” and the TD50 (rat, strain BD, both sexes, in feed, site: mammary gland, lesion: fibroadenoma, dosed 104 weeks, study length 120 weeks) was 150000 mg/kg/day (inactive).
Work on `CC[C@H](C)[C@@H]1NC(=O)[C@@H](NC(=O)c2c3nc4c(C(=O)N[C@@H]5C(=O)N[C@@H](C(C)C)C(=O)N6CCC[C@H]6C(=O)N(C)CC(=O)N(C)[C@@H](C(C)C)C(=O)O[C@@H]5C)ccc(C)c4oc-3c(C)c(=O)c2N)[C@@H](C)OC(=O)[C@H](C(C)C)N(C)C(=O)CN(C)C(=O)[C@@H]2CCCN2C1=O` (I: TIP[Sar][NMeV] / II: TVP[Sar][NMeV]; ester I:1-I:C, II:1-II:C; linker I:N-II:N via Actinocin(1to9)) yielded a TD50 (rat, strain BR 46, males, i.v., site: any site (literature study), lesion: benign tumor, dosed 52 weeks, study length 104 weeks) of 2.23 mg/kg/day, a TD50 (rat, strain BR 46, males, i.v., site: any site (literature study), lesion: malignant tumor, dosed 52 weeks, study length 104 weeks) of 10.8 mg/kg/day and a TD50 (rat, strain BR 46, males, i.v., site: any site (literature study), lesion: several types, types named in the paper, dosed 52 weeks, study length 104 weeks) of 1.68 mg/kg/day.
`COC(=O)NN` was tested, and the carcinogen call (rat, strain Wistar, females, in feed, site: any site (literature study), lesion: one or several types, types not named, dosed 104 weeks, study length 104 weeks) was “negative (inactive)” and the carcinogen call (rat, strain Wistar, males, in feed, site: any site (literature study), lesion: one or several types, types not named, dosed 104 weeks, study length 104 weeks) was “negative (inactive)”.

Source: PubChem BioAssay AID1745844 (Carcinogenic Potency Database (CPDB), 2022)
